The record followed here is patent publication US8927717B1, “Thiochromeno[2,3-c]quinolin-12-one derivatives, preparation method and application thereof” (National Defense Medical Center, priority 2014, dated 2015).

Each structure is given as a SMILES string. Where two headings read alike, the source gives them in different places.

Data set [1] deals with T1, TOP I (Topoisomerase I) (Homo sapiens, UniProt P11387).
T1 construct: purchased TopoGEN TG2005H
T1 sequence (P11387 1-765): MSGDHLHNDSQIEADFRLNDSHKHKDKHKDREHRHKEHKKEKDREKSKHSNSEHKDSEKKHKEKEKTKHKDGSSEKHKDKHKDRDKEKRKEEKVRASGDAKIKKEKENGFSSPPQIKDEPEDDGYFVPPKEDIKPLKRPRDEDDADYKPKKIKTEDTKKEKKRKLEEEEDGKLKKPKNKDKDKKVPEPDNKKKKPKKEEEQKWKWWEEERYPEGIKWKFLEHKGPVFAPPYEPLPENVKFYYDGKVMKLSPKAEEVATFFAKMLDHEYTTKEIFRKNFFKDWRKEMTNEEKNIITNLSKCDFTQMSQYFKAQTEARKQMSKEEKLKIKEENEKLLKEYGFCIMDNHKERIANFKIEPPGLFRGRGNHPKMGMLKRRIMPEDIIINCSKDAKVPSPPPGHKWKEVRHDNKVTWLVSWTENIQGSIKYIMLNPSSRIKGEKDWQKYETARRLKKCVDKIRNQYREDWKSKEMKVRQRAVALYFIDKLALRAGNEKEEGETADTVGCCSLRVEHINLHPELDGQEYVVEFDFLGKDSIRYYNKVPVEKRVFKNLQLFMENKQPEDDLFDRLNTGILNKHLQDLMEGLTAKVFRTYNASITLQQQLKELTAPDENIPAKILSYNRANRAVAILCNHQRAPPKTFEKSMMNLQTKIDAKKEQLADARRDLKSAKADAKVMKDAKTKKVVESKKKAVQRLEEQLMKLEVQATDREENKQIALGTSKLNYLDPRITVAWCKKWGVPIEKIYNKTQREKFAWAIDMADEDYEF
Put plainly: TOP I mediated supercoiled DNA relaxation assay. The class given is biochemical. The note with it: primary assay at 25 and/or 50 μM. The procedure: According to the cell cytotoxicity, compounds 5, 7, 8, 16, 19, N2, N7, N8, N9, N14-N19, and N25 were also selected for primary TOP I and II activities assays at 25 and/or 50 μM (FIG. 2-4).

Data set [2] addresses T2, TOP II (Topoisomerase II) (Homo sapiens, UniProt P11388).
T2 construct: purchased TopoGEN TG-2000H-1
In words: TOP II-catalyzed relaxation of plasmid DNA assay. It counts as biochemical. As to conditions: for IC50: five different concentrations, TopoGEN TG2005H, TG-2000H-1, read-out: IC50 value, TOP II mediated supercoiled DNA relaxation; for inhibitory effect in TOP II relaxation assay compared with VP-16: primary assay at 25 and/or 50 μM. As to the method: We also performed TOP II-catalyzed relaxation of plasmid DNA assays (FIG. 5-7) to evaluate if compounds could inhibit TOP II. […] The IC50 value of compounds 7, N7, N8, N14, N15, N18, and N19 were about 10, 10, 1, 10, 5, 1, and 1 μM, respectively (detect by TopoGEN TG2005H, TG-2000H-1).

The target of data set [3] is T1, TOP I (Topoisomerase I). In words: TOP I mediated supercoiled DNA relaxation assay. The class given is biochemical. As to conditions: five different concentrations; TopoGEN TG2005H, TG-2000H-1.
Another data set concerns PC-3 cell line. Put plainly: MTT assay for cell cytotoxicity. It counts as cell-based, human. As to conditions: PC-3 cells, 72 h, at least three independent experiments, read-out: MTT assay (IC50 ± SD) PC-3. As to the method:
(§1) All of synthesis compounds were evaluated cell cytotoxicity by using MTT colorimetric assay on PC-3 and DU-145 cell lines. DU-145 and PC-3 are human hormone-refractory (androgen-independent) prostatic cancer cell lines from American Type Culture Collection (HTB-81™, ATCC, Rockville, Md.)^125 and Bioresource Collection and Research Center (60122, BCRC, Taiwan)^126, respectively. Two of the “classical” cell lines were cultivated in RPMI-1640 medium supplemented with 5% fetal bovine serum (v/v), 100 U/mL penicillin, and […] streptomycin. Approximately 2×10^3 cells were seeded into each well of a 96-well plate and incubated in 5% CO2 at 37° C. for 24 h. To evaluate the in vitro cytotoxicity, all the synthetic compounds were dissolved in DMSO, prepared immediately before the experiments and diluted into the complete medium before being added to each well of a 96-well plate. Each compound was then added to the culture medium for designated various concentrations (0.15, 0.5, 1.5, 5, 15 μM). After 72 h, an amount of 100 μL of MTT (1 mg/mL) was added to each well, and the samples were incubated at 37° C. for 4 h. After removing the MTT solution, 100 μL of DMSO was added to each well and incubated at 37° C. for another 20 mins. The absorbency at 560 nm was measured by using an ELISA reader.
(§2) Results are expressed as mean values of at least three independent experiments. The IC50 values of testing compounds were described in Table 1.
A general note: Formazan colour is commonly taken as a measure of viable cells.

In a further data set the test system is DU-145 cell line. Put plainly: MTT assay for cell cytotoxicity. The class given is cell-based, human. The note with it: DU-145 cells; 72 h; at least three independent experiments; read-out: MTT assay (IC50 ± SD) DU-145. The procedure: as §1, §2

T2 sequence (P11388 whole entry): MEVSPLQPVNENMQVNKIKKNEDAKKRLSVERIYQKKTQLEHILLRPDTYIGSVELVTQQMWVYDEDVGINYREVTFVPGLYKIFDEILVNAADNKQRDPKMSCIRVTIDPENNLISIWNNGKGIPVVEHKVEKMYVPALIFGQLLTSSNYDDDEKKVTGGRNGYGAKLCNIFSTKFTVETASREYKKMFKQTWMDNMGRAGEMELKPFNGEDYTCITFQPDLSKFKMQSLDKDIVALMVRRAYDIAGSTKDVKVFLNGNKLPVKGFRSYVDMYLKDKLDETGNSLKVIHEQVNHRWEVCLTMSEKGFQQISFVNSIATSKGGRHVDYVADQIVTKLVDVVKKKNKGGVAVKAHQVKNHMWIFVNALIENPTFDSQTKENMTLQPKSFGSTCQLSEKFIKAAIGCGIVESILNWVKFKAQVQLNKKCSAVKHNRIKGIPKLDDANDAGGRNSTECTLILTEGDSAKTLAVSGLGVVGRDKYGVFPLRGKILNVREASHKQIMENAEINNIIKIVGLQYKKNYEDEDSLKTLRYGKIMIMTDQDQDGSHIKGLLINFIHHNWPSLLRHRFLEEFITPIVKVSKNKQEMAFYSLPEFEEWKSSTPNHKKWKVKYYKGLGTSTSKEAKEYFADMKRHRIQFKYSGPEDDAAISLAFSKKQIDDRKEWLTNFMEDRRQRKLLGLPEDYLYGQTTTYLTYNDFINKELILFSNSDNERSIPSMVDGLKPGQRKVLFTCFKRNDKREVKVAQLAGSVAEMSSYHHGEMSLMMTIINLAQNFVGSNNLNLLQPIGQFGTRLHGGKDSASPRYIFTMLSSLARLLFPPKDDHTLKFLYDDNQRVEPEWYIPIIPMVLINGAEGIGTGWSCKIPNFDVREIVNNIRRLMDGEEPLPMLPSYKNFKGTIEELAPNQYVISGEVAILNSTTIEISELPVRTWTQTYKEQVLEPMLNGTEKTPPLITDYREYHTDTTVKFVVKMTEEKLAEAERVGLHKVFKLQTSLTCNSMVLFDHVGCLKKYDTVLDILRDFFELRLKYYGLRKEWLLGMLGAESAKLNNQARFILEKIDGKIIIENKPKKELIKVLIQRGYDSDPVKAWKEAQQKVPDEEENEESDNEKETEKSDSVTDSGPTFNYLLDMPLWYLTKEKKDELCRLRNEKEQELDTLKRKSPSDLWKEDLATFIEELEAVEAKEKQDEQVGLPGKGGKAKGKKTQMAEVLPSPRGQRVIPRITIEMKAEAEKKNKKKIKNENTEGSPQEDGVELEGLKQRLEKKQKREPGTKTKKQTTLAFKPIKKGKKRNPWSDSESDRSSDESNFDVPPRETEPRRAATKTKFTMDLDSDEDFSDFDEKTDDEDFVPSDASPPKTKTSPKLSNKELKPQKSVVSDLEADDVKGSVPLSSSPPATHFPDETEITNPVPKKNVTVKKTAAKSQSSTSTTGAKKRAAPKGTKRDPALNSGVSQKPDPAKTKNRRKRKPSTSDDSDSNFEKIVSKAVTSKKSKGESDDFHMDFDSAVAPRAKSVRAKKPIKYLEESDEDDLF

Turning to `O=c1c2cc(Cl)ccc2sc2c(NCCNCCO)nc3ccccc3c12` [Compound N15, 10-Chloro-6-((2-((2-hydroxyethyl)amino)ethyl)amino)-12H-thiochromeno[2,3-c]quinolin-12-one], the melting point lay within 141 to 143 °C. At TOP I (Topoisomerase I) [1], the “inhibitory effect in TOP I activity assay compared with CPT” value (from here on “inhibitory effect … compared with CPT”) was “more potent inhibitory effects than CPT”. Besides, in data set [2], the concentration for half-maximal inhibition (IC50) is around 5 µM and the “inhibitory effect in TOP II relaxation assay compared with VP-16” value (from here on “inhibitory effect … compared with VP-16”) is “more potent inhibitory effects than the positive agent VP-16”. At TOP I (Topoisomerase I) [3], the half-maximal inhibitory concentration (IC50) was around 5 µM.

Consider `COc1cc([C@@H]2c3cc4c(cc3[C@@H](O[C@@H]3O[C@@H]5CO[C@@H](C)O[C@H]5[C@H](O)[C@H]3O)[C@H]3COC(=O)[C@H]23)OCO4)cc(OC)c1O` [Etoposide (VP-16), Etoposide, reference compound], for which, in the data set with PC-3 cell line (Homo sapiens), the 50% inhibitory concentration (IC50) was determined as 4.33 ± 0.86 µM.

Regarding `Nc1ccc(CCNc2nc3ccccc3c3c(=O)c4cc(Cl)ccc4sc23)cc1` [Compound N32, 6-((4-Aminophenethyl)amino)-10-chloro-12H-thiochromeno[2,3c]quinolin-12-one], the IC50 turned out to be 13.6 ± 1.39 µM with DU-145 cell line and 10.1 ± 0.94 µM in the data set on PC-3 cell line.

Take `CCN(CC)CCCNc1nc2ccccc2c2c(=O)c3cc(Cl)ccc3sc12` [Compound N18, 10-Chloro-6-((3-(diethylamino)propyl)amino)-12H-thiochromeno[2,3-c]quinolin-12-one]: the melting point was in the range of 142 to 143 °C. For the same molecule, the “inhibitory effect … compared with CPT” value against TOP I (Topoisomerase I) [1] is recorded as “more potent inhibitory effects than CPT”. In data set [2], the IC50 was around 1 µM and the “inhibitory effect … compared with VP-16” value is reported as “more potent inhibitory effects than the positive agent VP-16”. The molecule further registered an IC50 against TOP I (Topoisomerase I) [3] of around 25 µM.

Consider `O=c1c2cc(Cl)ccc2sc2c(NCCCO)nc3ccccc3c12` [Compound N10, 10-Chloro-6-(3-propanolamino)-12H-thiochromeno[2,3-c]quinolin-12-one], for which the results for the half-maximal inhibitory concentration (IC50) with DU-145 cell line and in the data set with PC-3 cell line were 5.94 ± 2.03 µM and 6.31 ± 4.11 µM, respectively.

As for `O=c1c2cc(Cl)ccc2sc2c(NCCCCCO)nc3ccccc3c12` [Compound N11, 10-Chloro-6-(5-pentanolamino)-12H-thiochromeno[2,3-c]quinolin-12-one], the 50% inhibitory concentration (IC50) stood at 4.95 ± 0.58 µM in the data set on DU-145 cell line and 8.38 ± 3.39 µM in the data set with PC-3 cell line.

For the molecule `O=c1c2cc(Cl)ccc2sc2c(N3CCNCC3)nc3ccccc3c12` [Compound 7, 10-Chloro-6-(piperazin-1-yl)-12H-thiochromeno[2,3-c]quinolin-12-one], the melting point was 211 to 213 °C. For the same molecule, at TOP I (Topoisomerase I) [1], the “inhibitory effect … compared with CPT” value is recorded as “more potent inhibitory effects than CPT”. Also, in data set [2], the IC50 was around 10 µM and the “inhibitory effect … compared with VP-16” value is “more potent inhibitory effects than the positive agent VP-16”. The IC50 against TOP I (Topoisomerase I) [3] is around 10 µM.

A word on the IC50: it is the midpoint of a concentration-inhibition curve. What is called melting point is the temperature, or range, at which the solid turns liquid.
